Measurements: ChEMBL document CHEMBL1129207, “Altering the specificity of subtilisin B. Lentus by combining site-directed mutagenesis and chemical modification” (Bioorg Med Chem Lett, 1996)

What was measured:
Set-up in all cases: species or system Lederbergia lenta
[1] = Compound was evaluated for the inhibition of SBL-M222C enzyme.
[2] = Compound was evaluated for the inhibition of SBL-M222C-SMe enzyme.
[3] = Compound was evaluated for the inhibition of SBL-M222C-SEtNH3+ enzyme.
[4] = Compound was evaluated for the inhibition of SBL-M222C-SEtSO3- enzyme.
[5] = Compound was evaluated for the inhibition of SBL-WT enzyme.

Ki [1] [µM] | Ki [2] [µM] | Ki [3] [µM] | Ki [4] [µM] | Ki [5] [µM] | SMILES
31 | 153 | 40 | 25 | 327 | OB(O)c1cccc(-c2ccccc2)c1
18 | 3.8 | 8.9 | 11 | 9.2 | OB(O)c1ccc(Cl)cc1Cl
23 | 11.2 | 10.5 | 15.6 | 23 | OB(O)c1ccc(Br)cc1
155 | 123 | 108 | 146 | 141 | OB(O)c1ccccc1 [PHENYLBORONIC ACID]

SMILES | Ki [1] [µM] | Ki [2] [µM] | Ki [3] [µM] | Ki [4] [µM] | Ki [5] [µM]
Nc1cccc(B(O)O)c1 | 204 | 139 | 127 | 176 | 150
